Test system: Plasmodium falciparum
Assay: GSK_TCMDC: Inhibition of Plasmodium falciparum 3D7 in whole erythrocytes, using parasite LDH activity as an index of growth.
Type: functional, organism-based
Conditions: Plasmodium falciparum, 3D7

| SMILES | XC50 |
| --- | --- |
| Cc1nc2c(=O)sc3ccccc3c2n1Cc1ccccc1 | 881 nM |
| C=CCn1c(C)cc(C(=O)COc2ccc(S(=O)(=O)N3CCOCC3)cc2[N+](=O)[O-])c1C | 1110 nM |
| c1ccc2c(c1)CN(Cc1cc3ccccc3[nH]1)CC1(CCN(Cc3c[nH]c4cnccc34)CC1)O2 | 306 nM |
| CC(Sc1nc(-c2ccccc2)c(-c2ccccc2)o1)C(=O)NC1CC1 (configuration not stated) | 843 nM |
| CCCCSc1ccc2nc(-c3c[nH]c4ccc(C#N)cc34)cn2c1 | 948 nM |
| Cc1cc(C=C(P(=O)(OC(C)C)OC(C)C)P(=O)(OC(C)C)OC(C)C)c2ccccc2c1O | 1080 nM |
| COc1ccc2c(O)c(C3CCC(c4ccc(Cl)cc4)CC3)c(C)nc2c1 (configuration not stated) | 647 nM |
| COc1ccc(S(=O)(=O)NCCCC2CCN(CCCCCNC(=O)C=Cc3ccc(Cl)c(Cl)c3)CC2)cc1 | 1040 nM |
| CN(CCN)Cc1cccc(-c2cccc(-c3nc4cc(C(F)(F)F)ccc4[nH]3)c2)c1 | 509 nM |
| CC(=O)Nc1ccc(C(=O)Nc2cccc(-c3ccc(-c4nc5ccccc5[nH]4)cc3)c2)cn1 | 206 nM |
| O=C(NCc1ccc(Cl)c(Cl)c1)c1ccc(-c2nc3ccc(Cl)cc3[nH]2)cc1 | 905 nM |
| O=c1cc(NCCCNCc2ccc(Cl)c(Cl)c2)[nH]c2cc(F)cc(F)c12 | 675 nM |
| Cc1cc(N[C@@H](CC(C)C)C(=O)Nc2ccccc2)nc(NCCc2ccccc2)n1 | 888 nM |
| CC(C)CNC(=O)c1cncc(-c2ccc(CNCCCc3ccccc3)cc2)c1 | 770 nM |
| CC(C)=C(C(=O)OCc1ccccc1)N1C(=O)[C@@H](NC(c2ccccc2)(c2ccccc2)c2ccccc2)[C@H]1[S+]([O-])CC(=O)OC(C)(C)C (some centres not stated) | 1020 nM |
| CC(=O)c1ccccc1OCCSc1nnc(Cc2cccs2)n1C1CCCCC1 | 919 nM |
| CCCCn1c(Sc2ccc(C#N)c([N+](=O)[O-])c2)nnc1-c1cc(OC)cc(OC)c1 | 824 nM |
| COc1c(C2CCN(CCCCNC(=O)c3ccc(-c4ccc(C(=O)C(F)(F)F)cc4)cc3)CC2)ccc2c1CCCC2 | 1100 nM |
| COc1ccc2[nH]c(C(=O)Nc3ccc4[nH]c(-c5ccccc5)nc4c3)cc2c1 | 834 nM |
| O=C(Nc1cccc(CN2CCCN(Cc3ncc[nH]3)CC2)c1)c1cc2ccccc2s1 | 734 nM |
| CCCN(CCC)CCCNc1ccc(C(=O)Nc2ccc(C(C)C)cc2)cc1[N+](=O)[O-] | 709 nM |
| Cc1c(F)cc(C(=O)NC2CC2)cc1-c1ccc2c(cnn2S(=O)(=O)c2ccc(Cl)s2)c1 | 391 nM |
| CCCCCOc1ccc(C(O)C(CCC(CN2CCCCCC2)C(O)c2ccc(OCCCCC)cc2)CN2CCCCCC2)cc1 (configuration not stated) | 768 nM |

| SMILES | XC50 |
| --- | --- |
| CCOC(=O)c1ccc(NC(=O)Nc2ccc(-c3cccc(-c4nc5cc(F)ccc5[nH]4)c3)cc2)cc1 | 122 nM |
| CCCCC(=O)Nc1ccc(Nc2nc(C)cc(N3CCCC3)n2)cc1 | 1060 nM |
| c1cc(CN2CCN(c3ccncc3)CC2)cc(-c2cccc(-c3nc4ccccc4[nH]3)c2)c1 | 126 nM |
| CC(C)(CNC(=O)C1CCN(CC2CCCCC2)CC1)c1nc(-c2ccc(Cl)c(O)c2)c(-c2ccncc2)[nH]1 | 888 nM |
| CCOC(=O)c1c(-c2ccccc2)c(C(=O)OCC)n2ccccc12 | 614 nM |
| Cc1[nH]c(C)c([N+](=O)[O-])c(=O)c1-c1ccc(Oc2ccc(OC(F)(F)F)cc2)cc1 | 247 nM |
| Cc1cccc(NC(=O)NCc2ccccc2)n1 | 944 nM |
| CC[C@H]1CN2CC[C@H]1C[C@H]2[C@H](O)c1cc(N2CCC3CCCCC3C2)nc2ccc(OC)cc12 (some centres not stated) | 170 nM |
| CN(C)c1ccc(CN2CCCCC(NC(=O)c3cc(-c4ccccc4F)cs3)C2)cc1 (configuration not stated) | 826 nM |
| Cc1cc(Nc2ccc(C(C)(C)C)cc2)c2[nH]ncc2n1 | 1160 nM |
| COc1ccc(N2CCN(c3nc(N)c4cc(OC)c(OC)cc4n3)CC2C)cc1 (configuration not stated) | 1420 nM |
| CCCCCCN1CCCN(Cc2ccc(C(=O)Nc3cccc(CC)c3)cc2)CC1 | 670 nM |
| CN1CCC(C(=O)Nc2cccc(-c3cccc(-c4nc5cc(F)ccc5[nH]4)c3)c2)CC1 | 695 nM |
| CN(C)c1ccc(CN2CCCCC(NC(=O)c3cc(-c4ccccc4Cl)cs3)C2)cc1 (configuration not stated) | 1060 nM |
| CC(=O)Nc1ncc(C(=O)Nc2cccc(-c3ccc(-c4nc5ccccc5[nH]4)cc3)c2)s1 | 669 nM |
| O=C(NCC1CC1)C1CCN(C(c2ccc(Cl)cc2)c2ccc(Cl)cc2)CC1 | 190 nM |
| COc1ccc2nccc([C@@H](O)CN3CCC(NC(=O)c4ccc5cc[nH]c5c4)CC3)c2c1 | 969 nM |
| Nc1nccc2ccc(-c3cccc4ncccc34)cc12 | 52.4 nM |
| FC(F)(F)c1ccc(NC(=S)N2CCC(CCN3CCC(c4c[nH]c5ccccc45)CC3)CC2)cc1 | 885 nM |
| CN1CCN(c2ccnc3ccc(NC(=O)Cc4cccc(Cl)c4Cl)cc23)CC1 | 791 nM |
| CCCCN1C(=O)C2CC(=O)CC(C3CCCCC3)C2C1=O (configuration not stated) | 888 nM |
| COc1ccccc1NC(=O)Nc1ccc(-c2ccc(-c3nc4cccc(C)c4[nH]3)s2)cc1 | 158 nM |
| O=C(c1ccccc1NN=C1C(=O)N(c2ccccc2)N=C1c1ccccc1)N1CCOCC1 | 351 nM |

| SMILES | XC50 |
| --- | --- |
| COc1cc2nc(Nc3ccc4c(c3)OCCO4)nc(N)c2cc1OC | 469 nM |
| COc1ccc2nccc([C@@H](O)CN3CCC(NC(=O)/C=C/c4ccc5[nH]c(=O)ccc5c4)CC3)c2c1 | 967 nM |
| O=C(NC1CCCCC1)C(c1cccs1)N(CCc1ccccc1)C(=O)c1ccco1 (configuration not stated) | 1040 nM |
| CS(=O)(=O)CCNCc1ccc(-c2ccc3ncnc(Nc4ccc(OCc5ccccc5)c(Cl)c4)c3c2)o1 [GW574783B] | 557 nM |
| OC(c1ccc2ccccc2c1)C1CN(CCc2ccccc2)CCC1(O)c1ccccc1 (configuration not stated) | 554 nM |
| COc1cc2c(cc1N(C(C)C)S(=O)(=O)c1sc3ccc(Cl)cc3c1C)CCNCC2 | 1050 nM |
| NC(=O)C1CCN(Cc2cccc(-c3cccc(-c4nc5cc(F)ccc5[nH]4)c3)c2)CC1 | 853 nM |
| Cc1ccc2c(c1)c(-c1ccccc1)c(-c1ccccc1)n2CC(O)CN1CCN(CC=Cc2ccccc2)CC1 (configuration not stated) | 782 nM |
| Cc1cccc2nc(-c3cccc(-c4ccc(NC(=O)Nc5ccc(F)c(F)c5F)cc4)c3)[nH]c12 | 168 nM |
| O=C(Nc1ccon1)c1cc(-c2cccnc2)nc2ccc(Br)cc12 | 744 nM |
| Cc1cc(NCCc2ccccc2)nc(NC(=N)Nc2cccc([N+](=O)[O-])c2)n1 | 140 nM |
| CCCCCCC(N)c1ccc(OCCCOc2ccc(C(N)CCCCCC)cc2)cc1 (configuration not stated) | 1140 nM |
| Cc1cc(NCCc2cccc(F)c2)nc(NC(=N)Nc2cccc(C(F)(F)F)c2)n1 | 146 nM |
| COc1cccc(C(=O)Nc2nc3c(s2)CCN(Cc2ccccc2N2CCNCC2)CC3)c1 | 888 nM |
| O=C(Nc1cccc(-c2ccc(-c3nc4cc(C(F)(F)F)ccc4[nH]3)cc2)c1)c1c[nH]cn1 | 966 nM |
| CN(C)c1ccc2c(c1)Sc1cc(N(C)C)ccc1N2C(=O)c1cccc(C(=O)O)c1 | 184 nM |
| COc1ccc2nccc(N3C[C@H]4C[C@@H]3CN4CCNCc3ccc4c(n3)NC(=O)CS4)c2n1 | 973 nM |
| Cc1cc(O)cc2c(C3CCN(CC4CCN(C(=O)/C=C/c5ccc(Cl)c(Cl)c5)CC4)CC3)c[nH]c12 | 1090 nM |
| CCc1c[nH]c2c(N(c3ccccc3)S(C)(=O)=O)cc(C(=O)N[C@@H](Cc3ccccc3)[C@H](O)CNCc3cccc(C(F)(F)F)c3)cc12 | 997 nM |
| COc1cc(CS(C)(=O)=O)ccc1Nc1nccc(-c2c(-c3cccc(NC(=O)c4c(F)cccc4F)c3)nn3ccccc23)n1 | 966 nM |
| COc1ccc(-c2ccc(NC(=O)c3cccc(Cl)c3)cc2)cc1CN1CCN(C)CC1 | 951 nM |

From ChEMBL document CHEMBL1157539, “Thousands of chemical starting points for antimalarial lead identification” (Nature, 2010)
